According to patent US11655216B2 (priority 2016, dated 2023):
pEC50: −log10 of the molar value. Where two headings read alike, the source gives them in different places.

Key:
[1] = biological target: T1, glutathione-S-transferase (GST) tagged LXRbeta LBD (ligand binding domain) (Homo sapiens, UniProt P55055); test: LanthaScreen TR-FRET Liver X Receptor Coactivator Assay, LXR beta; assay type: biochemical; conditions: for pEC50: LXR beta IP, potency (Inflection Point), compound-induced co-activator recruitment, TR-FRET; for Emax: read-out: LXR beta actiivty at max dose, efficacy (% Emax) in relation to reference dual agonist T0901317
T1 construct: purchased Invitrogen pv4658
T1 sequence (P55055 222-460 limits assumed): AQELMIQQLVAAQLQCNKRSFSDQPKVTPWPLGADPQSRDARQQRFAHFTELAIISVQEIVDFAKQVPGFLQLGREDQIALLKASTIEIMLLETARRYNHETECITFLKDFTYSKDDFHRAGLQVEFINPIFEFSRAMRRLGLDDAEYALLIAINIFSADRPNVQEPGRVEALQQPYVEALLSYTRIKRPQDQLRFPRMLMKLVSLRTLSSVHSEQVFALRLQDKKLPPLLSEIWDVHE
Procedure, shortened: (§1)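 Test ligands were combined with the receptor LBD, after which terbium-labelled anti-GST antibody and a fluorescein-tagged coactivator peptide were introduced together. Plates sat at room temperature, then time-resolved FRET was measured.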

[2] = biological target: T2, glutathione-S-transferase (GST) tagged LXRalpha LBD (ligand binding domain) (Homo sapiens, UniProt Q13133); test: biochemical
T2 construct: purchased Invitrogen pv4655
T2 sequence (Q13133 209-447 limits assumed): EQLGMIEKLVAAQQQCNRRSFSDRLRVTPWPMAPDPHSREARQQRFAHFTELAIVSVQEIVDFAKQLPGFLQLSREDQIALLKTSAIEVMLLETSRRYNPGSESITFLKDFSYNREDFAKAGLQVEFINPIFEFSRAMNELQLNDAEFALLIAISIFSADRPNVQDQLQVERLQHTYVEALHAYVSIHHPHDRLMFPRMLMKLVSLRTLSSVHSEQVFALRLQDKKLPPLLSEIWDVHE
Procedure, shortened: as §1

[3] = potency (Inflection Point), compound-induced co-activator recruitment, TR-FRET
[4] = read-out: LXR alpha actiivty at max dose, efficacy (% Emax) in relation to reference dual agonist T0901317
[5] = LXR alpha IP, potency (Inflection Point), compound-induced co-activator recruitment, TR-FRET

Row | SMILES | pEC50 [1] | Emax [1] [%] | LXR alpha IP [2, 3] | Emax [2, 4] [%] | pEC50 [2, 5] | Emax ([2]; efficacy (% Emax) in relation to reference dual agonist T0901317, read-out: LXR alpha actiivty at max dose) [%] | pEC50 ([2]; potency (Inflection Point), compound-induced co-activator recruitment, TR-FRET, read-out: LXR alpha IP) | pEC50 ([2]; LXR alpha IP) | Emax ([2]; read-out: LXR alpha actiivty at max dose) [%]
1 | CN(C)C(=O)c1ccc(OCC[C@H]2CC23CCN(C(=O)[C@](N)(c2ccccc2)C(F)(F)F)CC3)cc1Cl (single isomer, unassigned) [Example 12-9, 4-(2-((R or S)-6-((R or S)-2-amino-3,3,3-trifluoro-2-phenylpropanoyl)-6-azaspiro[2.5]octan-1-yl)ethoxy)-2-chloro-N,N-dimethylbenzamide] | 7.30 | 65 | No IP | 0 | – | – | – | – | –
2 | CN(C)C(=O)c1ccc(OCCC2CC23CCN(C(=O)C(C)(C)c2csc(N)n2)CC3)cc1Cl (single isomer, unassigned) [Example 12-10, (R or S)-4-(2-(6-(2-(2-aminothiazol-4-yl)-2-methylpropanoyl)-6-azaspiro[2.5]octan-1-yl)ethoxy)-2-chloro-N,N-dimethylbenzamide] | 6.22 | 61 | – | 21 | 5.43 | – | – | – | –
3 | CN(C)C(=O)c1ccc(OCCC2CC23CCN(C(=O)C2(c4cc(F)ccc4F)CCC2)CC3)cc1Cl (single isomer, unassigned) [Example 12-11, (S or R)-2-chloro-4-(2-(6-(1-(2,5-difluorophenyl)cyclobutanecarbonyl)-6-azaspiro[2.5]octan-1-yl)ethoxy)-N,N-dimethylbenzamide] | 7.92 | 87 | – | 24 | 6.35 | – | – | – | –
4 | CN(C)C(=O)c1ccc(OCCC2CC23CCN(C(=O)C2(c4ccc(Br)cc4)COC2)CC3)cc1Cl (single isomer, unassigned) [Example 12-12, (S or R)-4-(2-(6-(3-(4-bromophenyl)oxetane-3-carbonyl)-6-azaspiro[2.5]octan-1-yl)ethoxy)-2-chloro-N,N-dimethylbenzamide] | 7.09 | 60 | No IP | 28 | – | – | – | – | –
5 | CCC(C)(C(=O)N1CCC2(CC1)C[C@H]2CCOc1ccc(C(=O)N(C)C)c(Cl)c1)c1ccccc1 (single isomer, unassigned) [Example 12-13, 2-chloro-N,N-dimethyl-4-(2-((1S or 1R)-6-(2-methyl-2-phenylbutanoyl)-6-azaspiro[2.5]octan-1-yl)ethoxy)benzamide] | 7.77 | 72 | – | 26 | 6.30 | – | – | – | –
6 | CN(C)C(=O)c1ccc(OCC[C@@H]2CC23CCN(C(=O)C(C)(c2ccccc2)C2CCC2)CC3)cc1Cl (single isomer, unassigned) [Example 12-14, 2-chloro-4-(2-((S or R)-6-((S or R)-2-cyclobutyl-2-phenylpropanoyl)-6-azaspiro[2.5]octan-1-yl)ethoxy)-N,N-dimethylbenzamide] | 7.66 | 74 | – | 20 | 6.46 | – | – | – | –
7 | CC(C)[C@@](O)(C(=O)N1CCC2(CC1)C[C@H]2CCOc1ccc(C(=O)N(C)C)c(Cl)c1)C(F)(F)F (single isomer, unassigned) [Example 12-15, 2-chloro-4-(2-((S or R)-6-((R or S)-2-hydroxy-3-methyl-2-(trifluoromethyl)butanoyl)-6-azaspiro[2.5]octan-1-yl)ethoxy)-N,N-dimethylbenzamide] | 7.21 | 79 | – | 37 | 5.68 | – | – | – | –
8 | CN(C)C(=O)c1ccc(OCC[C@@H]2CC23CCN(C(=O)C(O)(c2cccc4c2OC(F)(F)O4)C(F)(F)F)CC3)cc1Cl (single isomer, unassigned) [Example 12-16, 2-chloro-4-(2-((1S or 1R)-6-(2-(2,2-difluorobenzo[d][1, 3]dioxol-4-yl)-3,3,3-trifluoro-2-hydroxypropanoyl)-6-azaspiro[2.5]octan-1-yl)ethoxy)-N,N-dimethylbenzamide] | 7.59 | 33 | No IP | 8 | – | – | – | – | –
9 | CN(C)C(=O)c1ccc(OCC[C@@H]2CC23CCN(C(=O)C2(c4ccccc4Br)CCC2)CC3)cc1Cl (single isomer, unassigned) [Example 12-17, (S or R)-4-(2-(6-(1-(2-bromophenyl)cyclobutanecarbonyl)-6-azaspiro[2.5]octan-1-yl)ethoxy)-2-chloro-N,N-dimethylbenzamide] | 8.05 | 79 | – | 35 | 6.78 | – | – | – | –
10 | CN(C)C(=O)c1ccc(OCCC2CC23CCN(S(=O)(=O)C(C)(C)c2ccccc2)CC3)cc1Cl (single isomer, unassigned) [Example 12-18, (S or R)-2-chloro-N,N-dimethyl-4-(2-(6-(2-phenylpropan-2-ylsulfonyl)-6-azaspiro[2.5]octan-1-yl)ethoxy)benzamide] | 7.10 | 26 | – | 27 | 5.93 | – | – | – | –
11 | CN(C)C(=O)c1ccc(OCCC2CC23CCN(C(=O)C2(c4cncnc4)CCC2)CC3)cc1Cl (single isomer, unassigned) [Example 12-19, (S or R)-2-chloro-N,N-dimethyl-4-(2-(6-(1-(pyrimidin-5-yl)cyclobutanecarbonyl)-6-azaspiro[2.5]octan-1-yl)ethoxy)benzamide] | 6.37 | 12 | No IP | 14 | – | – | – | – | –
12 | CN(C)C(=O)c1ccc(OCCC2CC23CCN(C(=O)C(C)(C)c2cccc(Br)n2)CC3)cc1Cl (single isomer, unassigned) [Example 12-20, (S or R)-4-(2-(6-(2-(6-bromopyridin-2-yl)-2-methylpropanoyl)-6-azaspiro[2.5]octan-1-yl)ethoxy)-2-chloro-N,N-dimethylbenzamide] | 7.33 | 32 | No IP | 0 | – | – | – | – | –
13 | CN(C)C(=O)c1ccc(OCC[C@@H]2CC23CCN(C(=O)[C@](N)(c2ccccc2)C(F)(F)F)CC3)cc1Cl (single isomer, unassigned) [Example 12-21, 4-(2-((S or R)-6-((R or S)-2-amino-3,3,3-trifluoro-2-phenylpropanoyl)-6-azaspiro[2.5]octan-1-yl)ethoxy)-2-chloro-N,N-dimethylbenzamide] | 7.38 | 47 | – | 23 | 5.86 | – | – | – | –
14 | CC(C[C@H]1CC12CCN(C(=O)C1(c3ccccc3)CCC1)CC2)Oc1ccc(C(=O)N(C)C)c(Cl)c1 (single isomer, unassigned) [Example 13-1, 2-chloro-N,N-dimethyl-4-((S or R)-1-((R or S)-6-(1-phenylcyclobutanecarbonyl)-6-azaspiro[2.5]octan-1-yl)propan-2-yloxy)benzamide] | 7.06 | 110 | – | – | – | 25 | 6.12 | – | –
15 | CN(C)C(=O)c1ccc(OCCC[C@H]2CC23CCN(C(=O)[C@@](O)(c2ccccc2)C(F)(F)F)CC3)cc1Cl (single isomer, unassigned) [Example 14-1, 2-chloro-N,N-dimethyl-4-(3-((S or R)-6-((S or R)-3,3,3-trifluoro-2-hydroxy-2-phenylpropanoyl)-6-azaspiro[2.5]octan-1-yl)propoxy)benzamide] | 7.19 | 99 | – | – | – | – | – | 6.12 | 9
16 | CN(C)C(=O)c1ccc(OCCCC2CC23CCN(C(=O)C2(c4ccccc4)CCCC2)CC3)cc1Cl (single isomer, unassigned) [Example 14-2, (R or S)-2-chloro-N,N-dimethyl-4-(3-(6-(1-phenylcyclopentanecarbonyl)-6-azaspiro[2.5]octan-1-yl)propoxy)benzamide] | 7.55 | 86 | – | 17 | 6.37 | – | – | – | –
17 | COc1ccccc1[C@@](O)(C(=O)N1CCC2(CC1)C[C@H]2CCCOc1ccc(C(=O)N(C)C)c(Cl)c1)C(F)(F)F (single isomer, unassigned) [Example 14-3, 2-chloro-N,N-dimethyl-4-(3-((R or S)-6-((R or S)-3,3,3-trifluoro-2-hydroxy-2-(2-methoxyphenyl)propanoyl)-6-azaspiro[2.5]octan-1-yl)propoxy)benzamide] | 7.39 | 81 | No IP | 6 | – | – | – | – | –
18 | COc1cccc([C@](O)(C(=O)N2CCC3(CC2)C[C@H]3CCCOc2ccc(C(=O)N(C)C)c(Cl)c2)C(F)(F)F)c1 (single isomer, unassigned) [Example 14-4, 2-chloro-N,N-dimethyl-4-(3-((R or S)-6-((S or R)-3,3,3-trifluoro-2-hydroxy-2-(3-methoxyphenyl)propanoyl)-6-azaspiro[2.5]octan-1-yl)propoxy)benzamide] | 7.08 | 80 | No IP | 0 | – | – | – | – | –
